Common to all, as to type: binding
The target of assay [1] is T1, XylE-WW (xylose:proton symporter XylE) (Escherichia coli, UniProt P0AGF4, G58W/L315W). Briefly: MST.
Assay [2] concerns the target T2, XylE (WT, xylose:proton symporter) (Escherichia coli, UniProt P0AGF4).
T2 sequence (P0AGF4 1-491): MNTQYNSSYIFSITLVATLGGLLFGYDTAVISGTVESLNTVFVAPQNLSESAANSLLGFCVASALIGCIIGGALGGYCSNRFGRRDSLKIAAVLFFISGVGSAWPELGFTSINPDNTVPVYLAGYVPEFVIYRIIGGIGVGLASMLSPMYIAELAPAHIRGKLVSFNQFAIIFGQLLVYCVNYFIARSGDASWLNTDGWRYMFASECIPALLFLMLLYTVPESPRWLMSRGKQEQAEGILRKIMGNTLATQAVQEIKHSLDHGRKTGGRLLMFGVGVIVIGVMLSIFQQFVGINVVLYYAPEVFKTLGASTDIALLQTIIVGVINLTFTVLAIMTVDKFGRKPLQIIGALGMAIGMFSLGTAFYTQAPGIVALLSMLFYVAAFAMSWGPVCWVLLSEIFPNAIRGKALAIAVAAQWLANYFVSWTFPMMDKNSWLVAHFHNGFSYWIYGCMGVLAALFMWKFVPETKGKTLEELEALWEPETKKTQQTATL
The experiment in a line: MST.

Assay [3] deals with T1, XylE-WW (xylose:proton symporter XylE). Briefly: MST and ITC.
For assay [4], the target named is T2, XylE (WT, xylose:proton symporter). The experiment in a line: ITC (MST almost identical).

A word on the Kd: it is the constant that tells how readily two partners part at equilibrium. The low end stands for tighter binding, the high end for weaker binding.

For `OC[C@H]1OC(O)[C@H](O)[C@@H](O)[C@@H]1O` (stereo partly drawn) [D-glucose], the equilibrium dissociation constant (Kd) stood at 27.5 ± 0.5 µM in assay [1] and 2080 ± 95.7 µM in assay [2].
In the case of `OC1OC[C@@H](O)[C@H](O)[C@H]1O` (stereo partly drawn) [D-xylose], the figures for the Kd in assay [3] and in assay [4] were 14.4 ± 0.2 µM and 843 ± 8 µM, respectively.

Values taken from publication PMC6399220, “Engineered XylE as a tool for mechanistic investigation and ligand discovery of the glucose transporters GLUTs” (Cell Discovery, 2019).
